From ChEMBL document CHEMBL5137093, “Improving Drug Delivery While Tailoring Prodrug Activation to Modulate Cmax and Cmin by Optimization of (Carbonyl)oxyalkyl Linker-Based Prodrugs of Atazanavir” (J Med Chem, 2022)

Key:
[1] = Ratio of Cmax/Cmin of Atazanavir in Sprague-Dawley rat at 30 ml/kg,po measured after 24 hrs by UPLC-MS/MS analysis; format: ADME; settings: in vivo
[2] = Cmax in Sprague-Dawley rat at 3 ml/kg,po measured upto 24 hrs by UPLC-MS/MS analysis; format: ADME; design: dose 3 ml/kg, time < 24 hrs, route po; settings: Sprague-Dawley, in vivo, 3 ml/kg
[3] = Half life in rat hepatocyte measured upto 120 mins in presence of ABT by UPLC-MS/MS analysis; format: ADME, cell-based; settings: hepatocytes, with ABT
[4] = Metabolic stability in human intestine microsomes assessed as half life; format: ADME, Microsome
[5] = Metabolic stability in human liver microsomes assessed as half life in presence of NADPH; format: ADME, Microsome
[6] = Ratio of AUC of Atazanavir in Sprague-Dawley rat at 1 ml/kg,iv measured upto 24 hrs by UPLC-MS/MS analysis; format: ADME; settings: in vivo
[7] = Metabolic stability in monkey liver microsomes assessed as half life; format: ADME, Macaca mulatta, Microsome; settings: rhesus monkey
[8] = Half life in rat hepatocyte measured upto 120 mins by UPLC-MS/MS analysis; format: ADME, cell-based; settings: hepatocytes
[9] = AUClast in Sprague-Dawley rat at 30 ml/kg,po measured upto 24 hrs by UPLC-MS/MS analysis; format: ADME; design: time < 24 hrs, dose 30 ml/kg, route po; settings: in vivo
[10] = Metabolic stability in human liver microsomes assessed as half life; format: ADME, Microsome
[11] = Relative Cmax ratio of Atazanavir in Sprague-Dawley rat at 3 ml/kg,po measured upto 24 hrs by UPLC-MS/MS analysis; format: ADME; settings: in vivo
[12] = Tmax in Sprague-Dawley rat at 3 ml/kg,po measured upto 24 hrs by UPLC-MS/MS analysis; format: ADME; settings: Sprague-Dawley, in vivo, read-out: Tmax
[13] = Clearance in Sprague-Dawley rat at 1 ml/kg,iv measured upto 24 hrs by UPLC-MS/MS analysis; format: ADME; settings: in vivo
[14] = Relative AUC ratio of Atazanavir in Sprague-Dawley rat at 3 ml/kg,po measured upto 24 hrs by UPLC-MS/MS analysis; format: ADME; settings: in vivo
[15] = Relative AUC ratio of Atazanavir in Sprague-Dawley rat at 1 ml/kg,iv measured upto 24 hrs by UPLC-MS/MS analysis; format: ADME; settings: in vivo
[16] = Cmax in Sprague-Dawley rat at 1 ml/kg,iv measured upto 24 hrs by UPLC-MS/MS analysis; format: ADME; design: dose 1 ml/kg, time < 24 hrs, route iv; settings: in vivo
[17] = Ratio of AUC of Atazanavir in Sprague-Dawley rat at 3 ml/kg,po measured upto 24 hrs by UPLC-MS/MS analysis; format: ADME; settings: in vivo
[18] = Relative Cmax ratio of Atazanavir in Sprague-Dawley rat at 1 ml/kg,iv measured upto 24 hrs by UPLC-MS/MS analysis; format: ADME; settings: in vivo
[19] = Metabolic stability in dog liver microsomes assessed as half life; format: ADME, Canis lupus familiaris, Microsome
[20] = Tmax in Sprague-Dawley rat at 30 ml/kg,po measured upto 24 hrs by UPLC-MS/MS analysis; format: ADME; settings: in vivo
[21] = Fold ratio of total AUC of Atazanavir in Sprague-Dawley rat at 1 ml/kg,iv measured upto 24 hrs by UPLC-MS/MS analysis; format: ADME; settings: in vivo
[22] = Half life in Sprague-Dawley rat at 1 ml/kg,iv measured upto 24 hrs by UPLC-MS/MS analysis; format: ADME; settings: in vivo
[23] = Metabolic stability in monkey intestine microsomes assessed as half life in presence of NADPH; format: ADME, Macaca mulatta, Microsome; settings: rhesus monkey
[24] = Volume of distribution at steady state in Sprague-Dawley rat at 1 ml/kg,iv measured upto 24 hrs by UPLC-MS/MS analysis; format: ADME; settings: in vivo, read-out: Vdss
[25] = Metabolic stability in rat liver microsomes assessed as half life; format: ADME, Microsome
[26] = Metabolic stability in dog liver microsomes assessed as half life in presence of NADPH; format: ADME, Canis lupus familiaris, Microsome
[27] = Ratio of Cmax/Cmin of Atazanavir in Sprague-Dawley rat at 1 ml/kg,iv measured after 24 hrs by UPLC-MS/MS analysis; format: ADME; settings: in vivo
[28] = Metabolic stability in monkey intestine microsomes assessed as half life; format: ADME, Macaca mulatta, Microsome; settings: rhesus monkey
[29] = Metabolic stability in rat intestine microsomes assessed as half life in presence of NADPH; format: ADME, Microsome
[30] = Metabolic stability in rat liver microsomes assessed as half life in presence of NADPH; format: ADME, Microsome
[31] = Cmin in Sprague-Dawley rat at 1 ml/kg,iv measured after 24 hrs by UPLC-MS/MS analysis; format: ADME; settings: in vivo, read-out: Cmin
[32] = Metabolic stability in dog intestine microsomes assessed as half life; format: ADME, Canis lupus familiaris, Microsome
[33] = Aqueous stability of the compound in phosphate buffer at pH 6.5 assessed as compound half life measured after 24 hrs by UPLC analysis; format: physicochemical; settings: buffer, pH 6.5, 24 h, 24 h
[34] = Metabolic stability in rat intestine microsomes assessed as half life; format: ADME, Microsome
[35] = Metabolic stability in dog intestine microsomes assessed as half life in presence of NADPH; format: ADME, Canis lupus familiaris, Microsome
[36] = Relative AUC ratio of Atazanavir in Sprague-Dawley rat at 30 ml/kg,po measured upto 24 hrs by UPLC-MS/MS analysis; format: ADME; settings: in vivo
[37] = Half life in rat hepatocyte measured upto 120 mins in presence of PMSF and ABT by UPLC-MS/MS analysis; format: ADME, cell-based; settings: hepatocytes, with PMSF and ABT
[38] = Half life in rat hepatocyte measured upto 120 mins in presence of PMSF by UPLC-MS/MS analysis; format: ADME, cell-based; settings: hepatocytes, with PMSF
[39] = Aqueous solubility of compound at pH 4 by UPLC analysis; format: physicochemical; settings: buffer
[40] = Metabolic stability in human intestine microsomes assessed as half life in presence of NADPH; format: ADME, Microsome
[41] = Relative Cmax ratio of Atazanavir in Sprague-Dawley rat at 30 ml/kg,po measured upto 24 hrs by UPLC-MS/MS analysis; format: ADME; settings: in vivo
[42] = AUClast in Sprague-Dawley rat at 3 ml/kg,po measured upto 24 hrs by UPLC-MS/MS analysis; format: ADME; design: time < 24 hrs, dose 3 ml/kg, route po; settings: Sprague-Dawley, in vivo, 3 ml/kg
[43] = AUClast in Sprague-Dawley rat at 1 ml/kg,iv measured upto 24 hrs by UPLC-MS/MS analysis; format: ADME; design: dose 1 ml/kg, time < 24 hrs, route iv; settings: in vivo
[44] = Ratio of AUC of Atazanavir in Sprague-Dawley rat at 30 ml/kg,po measured upto 24 hrs by UPLC-MS/MS analysis; format: ADME; settings: in vivo
[45] = Aqueous solubility of compound at pH 1 by UPLC analysis; format: physicochemical; settings: buffer
[46] = Cmax in Sprague-Dawley rat at 30 ml/kg,po measured upto 24 hrs by UPLC-MS/MS analysis; format: ADME; design: time < 24 hrs, dose 30 ml/kg, route po; settings: in vivo
[47] = Metabolic stability in monkey liver microsomes assessed as half life in presence of NADPH; format: ADME, Macaca mulatta, Microsome; settings: rhesus monkey
[48] = Fold ratio of total AUC of Atazanavir in Sprague-Dawley rat at 30 ml/kg,po measured upto 24 hrs by UPLC-MS/MS analysis; format: ADME; settings: in vivo
[49] = Ratio of Cmax/Cmin of Atazanavir in Sprague-Dawley rat at 3 ml/kg,po measured after 24 hrs by UPLC-MS/MS analysis; format: ADME; settings: in vivo
[50] = Fold ratio of total AUC of Atazanavir in Sprague-Dawley rat at 3 ml/kg,po measured upto 24 hrs by UPLC-MS/MS analysis; format: ADME; settings: in vivo

- Ratio [1]: 329.4
- Cmax [2]: 19 nM
- half-life [3]: 0.433 h
- half-life [4]: 1.83 h
- half-life [5]: 1.18 h
- Ratio [6]: 0.04
- half-life [7]: 2.45 h
- half-life [8]: 0.35 h
- AUC(0-t) at 24 h [9]: 0.601 µM·h
- half-life [10]: 2.82 h
- Ratio [11]: 3.8
- Tmax [12]: 0.6 h
- clearance [13]: 102 mL/min/kg
- Ratio [14]: 6.7
- Ratio [15]: 7
- Cmax [16]: 151 nM
- Ratio [17]: 0.02
- Ratio [18]: 2.07
- half-life [19]: 4.82 h
- Tmax [20]: 0.8 h
- Ratio [21]: 7.3
- half-life [22]: 6 h
- half-life [23]: 0.4 h
- Vd [24]: 35 L/kg
- half-life [25]: 3.73 h
- half-life [26]: 9 min
- Ratio [27]: 1040.4
- half-life [28]: > 2 h
- half-life [29]: 1.78 h
- half-life [30]: 0.833 h
- concentration at 24 h [31]: 2 nM
- half-life [32]: > 2 h
- t1/2 [33]: 4.9 h
- half-life [34]: > 2 h
- half-life [35]: 0.883 h
- Ratio [36]: 1.32
- half-life [37]: 1.43 h
- half-life [38]: 1.43 h
- solubility [39]: > 2300 µg/mL
- half-life [40]: 0.967 h
- Ratio [41]: 2.1
- AUC(0-t) at 24 h [42]: 0.044 µM·h
- AUC(0-t) at 24 h [43]: 0.17 µM·h
- Ratio [44]: 0.02
- solubility [45]: > 2100 µg/mL
- Cmax [46]: 189 nM
- half-life [47]: 9 min
- Ratio [48]: 1.35
- Ratio [49]: 204.8
- Ratio [50]: 6.8
Compound: COC(=O)N[C@H](C(=O)N[C@@H](Cc1ccccc1)[C@H](CN(Cc1ccc(-c2ccccn2)cc1)NC(=O)[C@@H](NC(=O)OC)C(C)(C)C)OC(=O)OC(OC(=O)[C@@H](N)C(C)C)C(C)C)C(C)(C)C (stereo in doubt; 3s)
